Five compounds from patent US7282507B2, “Indole derivatives as selective androgen receptor modulators (SARMS)” (Janssen Pharmaceutica N.V., priority 2004, dated 2007) can be followed below.

Broadly, the IC50 is the concentration needed to halve the response being measured. What is called inhibition is the relative decrease from the control value, in per cent. A high value points to strong suppression.

Assay [1] concerns testosterone-enhanced ventral prostate and seminal vesicle weights. In words: Ventral Prostate and Seminal Vesicle Weight in vivo Assay. Further: key: 'active' if the non weight adjusted prostate weight was ≦40 mg or the % Inhibition prostate weight, body weight adjusted was ≧40% @ 2 mg/day dosage; ID50's, if determined, of ≦15 mg/day also indicated an 'active' compound; listed herein as 'inactive' as they did not meet the specified criteria defined above. Details: species or system rat. The conditions noted are these: immature castrated male Sprague Dawley rats, once daily for five days, usually orally 40 mg/kg, with testosterone propionate 2 mg/kg s.c. In short, it runs like this:
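Immature castrated male Sprague Dawley rats (~50 g) were dosed once daily for five days with compound, usually orally at 40 mg/kg in cyclodextrin or methylcellulose vehicle. Testosterone propionate was co-dosed subcutaneously at 2 mg/kg. On day six, ventral prostate and seminal vesicle wet weights were measured; activity was judged on prostate weight or body-weight-adjusted % inhibition.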

Assay [2] addresses T1, androgen receptor LBD (Panvera) (Rattus norvegicus, UniProt P15207).
T1 construct: 5 pmol androgen receptor LBD (Panvera); purchased Panvera
T1 sequence (P15207 651-882 limits assumed): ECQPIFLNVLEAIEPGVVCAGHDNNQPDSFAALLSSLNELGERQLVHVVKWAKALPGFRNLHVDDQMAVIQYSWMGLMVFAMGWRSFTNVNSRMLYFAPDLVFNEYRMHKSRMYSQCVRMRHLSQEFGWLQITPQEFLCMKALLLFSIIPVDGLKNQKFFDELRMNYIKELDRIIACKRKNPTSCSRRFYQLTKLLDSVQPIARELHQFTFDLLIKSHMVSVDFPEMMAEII
As to the kind of experiment: Androgen Receptor Filtration Binding Assay (PANVERA). Conditions: [3H] R1881 tracer 0.5 nM; read-out: IC50 (nM), Androgen Receptor Binding (Panvera).

Assay [3] addresses T2, androgen receptor (AdEasy+rAR, COS-7 cells) (Rattus norvegicus, UniProt P15207).
T2 construct: expressed in transfected cells; host or cells: COS-7 cells transduced with adenovirus AdEasy+rAR
T2 sequence (P15207 1-902): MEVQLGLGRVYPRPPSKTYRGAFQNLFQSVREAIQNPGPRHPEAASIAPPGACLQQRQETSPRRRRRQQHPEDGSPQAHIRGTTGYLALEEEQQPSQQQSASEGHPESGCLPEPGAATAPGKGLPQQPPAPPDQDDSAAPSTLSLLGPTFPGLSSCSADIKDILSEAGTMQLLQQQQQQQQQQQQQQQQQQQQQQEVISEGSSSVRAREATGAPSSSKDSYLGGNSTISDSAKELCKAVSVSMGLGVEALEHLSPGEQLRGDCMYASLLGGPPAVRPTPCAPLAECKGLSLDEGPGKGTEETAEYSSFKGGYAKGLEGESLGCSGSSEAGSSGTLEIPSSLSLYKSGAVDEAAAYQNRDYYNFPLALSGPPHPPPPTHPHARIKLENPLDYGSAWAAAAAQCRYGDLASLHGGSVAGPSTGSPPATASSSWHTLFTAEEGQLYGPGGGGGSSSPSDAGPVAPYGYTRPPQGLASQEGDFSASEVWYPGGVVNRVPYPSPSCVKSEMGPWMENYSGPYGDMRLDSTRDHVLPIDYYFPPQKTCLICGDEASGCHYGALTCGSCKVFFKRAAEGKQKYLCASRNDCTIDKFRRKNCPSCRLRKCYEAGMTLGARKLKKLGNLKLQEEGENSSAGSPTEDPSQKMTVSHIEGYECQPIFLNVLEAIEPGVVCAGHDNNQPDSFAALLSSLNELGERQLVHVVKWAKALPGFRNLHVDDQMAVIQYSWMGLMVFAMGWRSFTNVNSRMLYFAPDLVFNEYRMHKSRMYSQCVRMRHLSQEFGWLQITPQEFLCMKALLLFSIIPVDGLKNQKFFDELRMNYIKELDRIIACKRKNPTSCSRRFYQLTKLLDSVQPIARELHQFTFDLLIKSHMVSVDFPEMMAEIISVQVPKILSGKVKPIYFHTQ
In words: COS-7 Whole-Cell Androgen Receptor Binding Assay, Adenovirus Transduction. The conditions noted are these: for inhibition at 3 µM: concentration of 3000 nM; for IC50: read-out: IC50 (nM), COS Binding. In short, it runs like this:
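COS-7 cells in phenol red-free DMEM/F12 with 10% charcoal-treated FBS were transduced with AdEasy+rAR adenovirus (moi 1:50 per well), exposed to test compound in duplicate and incubated for 48 h at 37° C. Cells were then lysed in 0.5% Triton X-100 and bound radioactivity counted by scintillation.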

Structures are written as SMILES. Some results are limits rather than exact numbers.

Regarding `CC(O)(CSc1ccc(N)cc1)c1cc2cc(Cl)c(C(F)(F)F)cc2[nH]1` (centres unmarked) [Compound 104], in assay [1], the “active / inactive: inhibition of testosterone-enhanced prostate weight” value (“active / inactive: inhibition” for short) was “inactive”. In assay [2], the IC50 was 930 nM. Testing at 3 µM in assay [3] gave an inhibition of 94%.
As to `CCC(O)(CS(=O)(=O)CC)c1cc2cc([N+](=O)[O-])c(C(F)(F)F)cc2[nH]1` (centres unmarked) [Compound 176], the “active / inactive: inhibition” value in assay [1] is “active”. Moreover, the inhibition at 3 µM in assay [3] turned out to be 75%.
Consider `COc1ccc(SCC(C)(O)c2cc3cc(Cl)c(C(F)(F)F)cc3[nH]2)cc1` (centres unmarked) [Compound 131], for which the “active / inactive: inhibition” value in assay [1] was “inactive”. Moreover, in assay [3], 3 µM produced 84% inhibition and the 50% inhibitory concentration (IC50) was > 1600 nM.
For `CC(C)CSCC(C)(O)c1cc2cc([N+](=O)[O-])c(C(F)(F)F)cc2[nH]1` (centres unmarked) [Compound 170], in that order: “active”, 67% and > 3000 nM.
On the same counts, the results for `CCSCC(C)(O)c1cc2cc([N+](=O)[O-])c(C(F)(F)F)cc2n1C` (racemic) [Compound 165] are “active”, 69% and > 3000 nM.
